Assay results: the supplement of paper PMC10307832

How the values were obtained:
Experiment in all cases: relative viability (nuclei count vs DMSO), 5 days (fraction); higher = more cells survive
Kobe2602 + OSI-027 = compound: C1=CC(=CC=C1NC(=S)NNC2=C(C=C(C=C2[N+](=O)[O-])C(F)(F)F)[N+](=O)[O-])F [Kobe2602] + COc1cccc2cc(-c3nc([C@H]4CC[C@H](C(=O)O)CC4)n4ncnc(N)c34)[nH]c12 [OSI-027] (partner 0.5 µM)
How it was run: (§1)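 Relative viability divides the nuclei count in treated wells by that in vehicle wells. Lung cancer cell lines were seeded in 1536-well plates, dosed by pin tool the next day, and fixed and stained after 5 days in one step with final 0.05% Triton X-100, 1% formaldehyde and 1 ug/ml Hoechst. Dosing was a single drug or a fixed anchor-drug dose plus five library-drug doses (not always all listed) in √10 steps, and values are medians of duplicate plates imaged at 4×.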

Kobe2602 + Pictilisib = compound: C1=CC(=CC=C1NC(=S)NNC2=C(C=C(C=C2[N+](=O)[O-])C(F)(F)F)[N+](=O)[O-])F [Kobe2602] + CS(=O)(=O)N1CCN(Cc2cc3nc(-c4cccc5[nH]ncc45)nc(N4CCOCC4)c3s2)CC1 [Pictilisib] (partner 1 µM)
How it was run: as §1

Zosuquidar + Dasatinib = compound: O[C@@H](COc1cccc2ncccc12)CN1CCN([C@@H]2c3ccccc3[C@@H]3[C@H](c4ccccc42)C3(F)F)CC1 [Zosuquidar] + Cc1nc(Nc2ncc(C(=O)Nc3c(C)cccc3Cl)s2)cc(N2CCN(CCO)CC2)n1 [Dasatinib] (partner 0.075 µM)
How it was run: as §1

Zosuquidar + Alpelisib = compound: O[C@@H](COc1cccc2ncccc12)CN1CCN([C@@H]2c3ccccc3[C@@H]3[C@H](c4ccccc42)C3(F)F)CC1 [Zosuquidar] + Cc1nc(NC(=O)N2CCC[C@H]2C(N)=O)sc1-c1ccnc(C(C)(C)C(F)(F)F)c1 [Alpelisib] (partner 2 µM)
How it was run: as §1

Cell Line: UMC-11
- relative viability (Kobe2602 + OSI-027; first compound 0.2 µM): 0.461
- relative viability (Kobe2602 + OSI-027; first compound 0.6325 µM): 0.537
- relative viability (Kobe2602 + OSI-027; first compound 2 µM): 0.539
- relative viability (Kobe2602 + OSI-027; first compound 6.325 µM): 0.459
- relative viability (Kobe2602 + OSI-027; first compound 20 µM): 0.467
- relative viability (Kobe2602 + Pictilisib; first compound 0.2 µM): 0.865
- relative viability (Kobe2602 + Pictilisib; first compound 0.6325 µM): 0.863
- relative viability (Kobe2602 + Pictilisib; first compound 2 µM): 0.847
- relative viability (Kobe2602 + Pictilisib; first compound 6.325 µM): 0.778
- relative viability (Kobe2602 + Pictilisib; first compound 20 µM): 0.868
- relative viability (Zosuquidar + Dasatinib; first compound 0.01 µM): 0.428
- relative viability (Zosuquidar + Dasatinib; first compound 0.03162 µM): 0.535
- relative viability (Zosuquidar + Dasatinib; first compound 0.1 µM): 0.455
- relative viability (Zosuquidar + Dasatinib; first compound 0.3162 µM): 0.486
- relative viability (Zosuquidar + Dasatinib; first compound 1 µM): 0.518
- relative viability (Zosuquidar + Alpelisib; first compound 0.01 µM): 0.877
- relative viability (Zosuquidar + Alpelisib; first compound 0.03162 µM): 1.03
- relative viability (Zosuquidar + Alpelisib; first compound 0.1 µM): 0.973
- relative viability (Zosuquidar + Alpelisib; first compound 0.3162 µM): 1.02
- relative viability (Zosuquidar + Alpelisib; first compound 1 µM): 0.961
